Test results: patent US11447465B2, “Pharmaceutical compounds for treatment of medical disorders” (Achillion Pharmaceuticals, Inc., priority 2017, dated 2022)

Each molecule was assayed against Human Factor D (Homo sapiens (Human), UniProt P00746) (assay: Human Factor D Assay). Conditions: Table 5; Human Factor D 80 nM, substrate Z-L-Lys-SBzl; read-out: IC50 (Stars).
Format: biochemical
Description: Human Factor D (purified from human serum, Complement Technology, Inc.) at 80 nM final concentration is incubated with test compound at various concentrations for 5 min at room temperature in 50 mM Tris, 1M NaCl, pH 7.5. A synthetic substrate Z-L-Lys-SBzl and DTNB (Ellman's reagent) are added to final concentrations of 100 μM each. Absorbance at 405 nm (A405) is recorded at 30 second intervals for 30 min using a microplate spectrophotometer. IC50 values are calculated by nonlinear regression of Complement Factor D reaction rates as a function of test compound concentration.

Sequence of Human Factor D (P00746 26-253): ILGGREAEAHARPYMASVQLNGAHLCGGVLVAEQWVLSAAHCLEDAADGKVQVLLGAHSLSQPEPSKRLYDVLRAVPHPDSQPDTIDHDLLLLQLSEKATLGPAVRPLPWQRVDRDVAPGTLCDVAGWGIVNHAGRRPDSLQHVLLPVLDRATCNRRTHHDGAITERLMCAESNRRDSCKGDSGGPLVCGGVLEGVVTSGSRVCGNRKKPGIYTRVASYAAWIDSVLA

Compound	IC50 [nM]
CC(=O)c1nn(CC(=O)N2C[C@H]3C[C@H]3[C@H]2C(=O)Nc2nc(Br)ccc2C)c2cc(C)sc12 [Compound T-2, (1R,2S,5S)-3-(2-(3-acetyl-5-methyl-1H-thieno[3,2-c]pyrazol-1-yl)acetyl)-N-(6-bromo-3-methylpyridin-2-yl)-3-azabicyclo[3.10]hexane-2-carboxamide]	< 1000
CC(=O)c1nn(CC(=O)N2C[C@H](F)C[C@H]2C(=O)Nc2cccc(Br)n2)c2ccc(S(C)(=N)=O)cc12 (stereo partly drawn) [Compound T-3, (2S,4R)-1-(2-(3-acetyl-5-(S-methylsulfonimidoyl)-1H-indazol-1-yl)acetyl)-N-(6-bromopyridin-2-yl)-4-fluoropyrrolidine-2-carboxamide]	< 1000
CC(=O)c1nn(CC(=O)N2C[C@H](F)C[C@H]2C(=O)Nc2cccc(Br)n2)c2cc(/S(C)=N/C(=O)C(F)(F)F)ccc12 (stereo partly drawn) [Compound T-4, (2S,4R)-1-(2-(3-acetyl-6-((E)-S-methyl-N-(2,2,2-trifluoroacetyl)sulfinimidoyl)-1H-indazol-1-yl)acetyl)-N-(6-bromopyridin-2-yl)-4-fluoropyrrolidine-2-carboxamide]	< 1000
CC(=O)c1nn(CC(=O)N2C[C@H](F)C[C@H]2C(=O)Nc2cccc(Br)n2)c2cc(S(C)(=N)=O)ccc12 (stereo partly drawn) [Compound T-5, (2S,4R)-1-(2-(3-acetyl-6-(S-methylsulfonimidoyl)-1H-indazol-1-yl)acetyl)-N-(6-bromopyridin-2-yl)-4-fluoropyrrolidine-2-carboxamide]	< 1000
CC(=O)c1nn(CC(=O)N2[C@H](C(=O)Nc3cccc(Br)n3)C[C@@]3(C)C[C@@H]23)c2cc(S(C)(=N)=O)ccc12 (stereo partly drawn) [Compound T-6, (1R,3S,5R)-2-(2-(3-acetyl-6-(S-methylsulfonimidoyl)-1H-indazol-1-yl)acetyl)-N-(6-bromopyridin-2-yl)-5-methyl-2-azabicyclo[3.1.0]hexane-3-carboxamide]	< 1000
CC(=O)c1nn(CC(=O)N2C[C@H]3C[C@H]3[C@H]2C(=O)Nc2cccc(Br)n2)c2cc(S(C)(=N)=O)ccc12 (stereo partly drawn) [Compound T-7, (1R,2S,5S)-3-(2-(3-acetyl-6-(S-methylsulfonimidoyl)-1H-indazol-1-yl)acetyl)-N-(6-bromopyridin-2-yl)-3-azabicyclo[3.1.0]hexane-2-carboxamide]	< 1000
CC(=O)c1nn(CC(=O)N2C[C@H](F)C[C@H]2C(=O)NCC23C4C5C6C4C2C6C53)c2ccccc12 (stereo partly drawn) [Compound T-8, (2S,4R)-1-(2-(3-acetyl-1H-indazol-1-yl)acetyl)-N-(cuban-1-ylmethyl)-4-fluoropyrrolidine-2-carboxamide]	1000 to 10000
CC(=O)c1nn(CC(=O)N2[C@H](C(=O)Nc3nc(Br)ccc3C)C[C@@]3(C)C[C@@H]23)c2ccc(NC(=O)C3CCCCC3(F)F)cc12 (stereo partly drawn) [Compound T-9, (1R,3S,5R)-2-(2-(3-acetyl-5-(2,2-difluorocyclohexane-1-carboxamido)-1H-indazol-1-yl)acetyl)-N-(6-bromo-3-methylpyridin-2-yl)-5-methyl-2-azabicyclo[3.10]hexane-3-carboxamide]	< 1000
CC(=O)c1nn(CC(=O)N2C[C@H]3C[C@H]3[C@H]2C(=O)Nc2nc(Br)ccc2C2CC2)c2cc(C)sc12 [Compound T-10, (1R,2S,5S)-3-(2-(3-acetyl-5-methyl-1H-thieno[3,2-c]pyrazol-1-yl)acetyl)-N-(6-bromo-3-cyclopropylpyridin-2-yl)-3-azabicyclo[3.1.0]hexane-2-carboxamide]	< 1000
CC(=O)c1nn(CC(=O)N2C[C@H](F)C[C@H]2C(=O)Nc2cccc(Br)n2)c2cc(S(C)(=O)=NC#N)ccc12 (some centres unmarked) [Compound T-11]	< 1000
CC(=O)c1nn(CC(=O)N2[C@H](C(=O)Nc3nc(Br)ccc3C)C[C@@]3(C)C[C@@H]23)c2ccccc12 [Compound T-13, (1R,3S,5R)-2-(2-(3-acetyl-1H-indazol-1-yl)acetyl)-N-(6-bromo-3-methylpyridin-2-yl)-5-methyl-2-azabicyclo[3.1.0]hexane-3-carboxamide]	< 1000
CC(=O)c1ccn(CC(=O)N2C[C@H](F)C[C@H]2C(=O)Nc2cccc(Br)n2)n1 [Compound T-14, (2S,4R)-1-(2-(3-acetyl-1H-pyrazol-1-yl)acetyl)-N-(6-bromopyridin-2-yl)-4-fluoropyrrolidine-2-carboxamide]	< 1000
NC(=O)c1cc(C(F)(F)F)n(CC(=O)N2C[C@H](F)C[C@H]2C(=O)Nc2cccc(Br)n2)n1 [Compound T-15, 1-(2-((2S,4R)-2-((6-bromopyridin-2-yl)carbamoyl)-4-fluoropyrrolidin-1-yl)-2-oxoethyl)-5-(trifluoromethyl)-1H-pyrazole-3-carboxamide]	< 1000
COC(=O)c1cc(C(C)=O)cn1CC(=O)N1C[C@H](F)C[C@H]1C(=O)Nc1cccc(Br)n1 [Compound T-16, methyl 4-acetyl-1-(2-((2S,4R)-2-((6-bromopyridin-2-yl)carbamoyl)-4-fluoropyrrolidin-1-yl)-2-oxoethyl)-1H-pyrrole-2-carboxylate]	1000 to 10000
CC(=O)c1cc(C(=O)O)n(CC(=O)N2C[C@H](F)C[C@H]2C(=O)Nc2cccc(Br)n2)c1 [Compound T-17, 4-acetyl-1-(2-((2S,4R)-2-((6-bromopyridin-2-yl)carbamoyl)-4-fluoropyrrolidin-1-yl)-2-oxoethyl)-1H-pyrrole-2-carboxylic acid]	< 1000
CC(=O)c1cc(C(=O)N2CCC(F)(F)C2)n(CC(=O)N2C[C@H](F)C[C@H]2C(=O)Nc2cccc(Br)n2)c1 [Compound T-18, (2S,4R)-1-(2-(4-acetyl-2-(3,3-difluoropyrrolidine-1-carbonyl)-1H-pyrrol-1-yl)acetyl)-N-(6-bromopyridin-2-yl)-4-fluoropyrrolidine-2-carboxamide]	> 10000
CC(=O)c1cc(C(=O)NCc2cnc(C)nc2)n(CC(=O)N2C[C@H](F)C[C@H]2C(=O)Nc2cccc(Br)n2)c1 [Compound T-19, 4-acetyl-1-(2-((2S,4R)-2-((6-bromopyridin-2-yl)carbamoyl)-4-fluoropyrrolidin-1-yl)-2-oxoethyl)-N-((2-methylpyrimidin-5-yl)methyl)-1H-pyrrole-2-carboxamide]	< 1000
CC(=O)c1cn(CC(=O)N2C[C@H](F)C[C@H]2C(=O)Nc2cccc(Br)n2)c(C)n1 [Compound T-20, (2S,4R)-1-(2-(4-acetyl-2-methyl-1H-imidazol-1-yl)acetyl)-N-(6-bromopyridin-2-yl)-4-fluoropyrrolidine-2-carboxamide]	> 10000
CCOC(=O)/C=C/c1cn(CC(=O)N2C[C@H](F)C[C@H]2C(=O)Nc2cccc(Br)n2)nc1C(N)=O [Compound T-22, (E)-ethyl 3-(1-(2-((2S,4R)-2-((6-bromopyridin-2-yl)carbamoyl)-4-fluoropyrrolidin-1-yl)-2-oxoethyl)-3-carbamoyl-1H-pyrazol-4-yl)acrylate]	1000 to 10000
CC(=O)c1cc(C(N)=O)n(CC(=O)N2C[C@H](F)C[C@H]2C(=O)Nc2cccc(Br)n2)n1 [Compound T-23, 3-acetyl-1-(2-((2S,4R)-2-((6-bromopyridin-2-yl)carbamoyl)-4-fluoropyrrolidin-1-yl)-2-oxoethyl)-1H-pyrazole-5-carboxamide]	< 1000
CC(=O)c1cc(C(=O)NCc2cscn2)n(CC(=O)N2C[C@H](F)C[C@H]2C(=O)Nc2cccc(Br)n2)n1 [Compound T-24, 3-acetyl-1-(2-((2S,4R)-2-((6-bromopyridin-2-yl)carbamoyl)-4-fluoropyrrolidin-1-yl)-2-oxoethyl)-N-(thiazol-4-ylmethyl)-1H-pyrazole-5-carboxamide]	< 1000
CC(=O)c1nn(CC(=O)N2[C@H](C(=O)Nc3nc(Br)ccc3C)C[C@@]3(C)C[C@@H]23)c2ccc(NC(=O)C3CCCC3(F)F)cc12 (stereo partly drawn) [Compound T-27, (1R,3S,5R)-2-(2-(3-acetyl-5-(2,2-difluorocyclopentane-1-carboxamido)-1H-indazol-1-yl)acetyl)-N-(6-bromo-3-methylpyridin-2-yl)-5-methyl-2-azabicyclo[3.1.0]hexane-3-carboxamide]	< 1000
NC(=O)c1nn(CC(=O)N2C[C@H](F)C[C@H]2C(=O)Nc2cccc(Br)n2)cc1/C=C/C(=O)NC1CC1 [Compound T-28, 1-(2-((2S,4R)-2-((6-bromopyridin-2-yl)carbamoyl)-4-fluoropyrrolidin-1-yl)-2-oxoethyl)-4-((E)-3-(cyclopropylamino)-3-oxoprop-1-en-1-yl)-1H-pyrazole-3-carboxamide]	1000 to 10000
CC(=O)c1nn(CC(=O)N2[C@H](C(=O)Nc3nc(Br)ccc3C)C[C@@]3(C)C[C@@H]23)c2ccc(OC(=O)NC3CC3)cc12 [Compound T-32, 3-acetyl-1-(2-((1R,3S,5R)-3-((6-bromo-3-methylpyridin-2-yl)carbamoyl)-5-methyl-2-azabicyclo[3.1.0]hexan-2-yl)-2-oxoethyl)-1H-indazol-5-yl cyclopropylcarbamate]	< 1000
CC(=O)c1nn(CC(=O)N2[C@H](C(=O)Nc3nc(Br)ccc3C)C[C@@]3(C)C[C@@H]23)c2cc(S(C)(=N)=O)ccc12 (stereo partly drawn) [Compound T-33, (1R,3S,5R)-2-(2-(3-acetyl-6-(S-methylsulfonimidoyl)-1H-indazol-1-yl)acetyl)-N-(6-bromo-3-methylpyridin-2-yl)-5-methyl-2-azabicyclo[3.1.0]hexane-3-carboxamide]	< 1000
CC(=O)c1nn(CC(=O)N2[C@H](C(=O)Nc3nc(Br)ccc3C)C[C@@]3(CNC(=O)CC(F)(F)F)C[C@@H]23)c2c(C)cccc12 [Compound T-35, (1R,3S,5R)-2-(2-(3-acetyl-7-methyl-1H-indazol-1-yl)acetyl)-N-(6-bromo-3-methylpyridin-2-yl)-5-((3,3,3-trifluoropropanamido)methyl)-2-azabicyclo[3.1.0]hexane-3-carboxamide]	< 1000
